From patent publication US10011609B2, “Heterocyclic compounds” (CADILA HEALTHCARE LIMITED, priority 2013, dated 2018) come the findings set out here.

T1 sequence (O14842 whole entry, species assumed): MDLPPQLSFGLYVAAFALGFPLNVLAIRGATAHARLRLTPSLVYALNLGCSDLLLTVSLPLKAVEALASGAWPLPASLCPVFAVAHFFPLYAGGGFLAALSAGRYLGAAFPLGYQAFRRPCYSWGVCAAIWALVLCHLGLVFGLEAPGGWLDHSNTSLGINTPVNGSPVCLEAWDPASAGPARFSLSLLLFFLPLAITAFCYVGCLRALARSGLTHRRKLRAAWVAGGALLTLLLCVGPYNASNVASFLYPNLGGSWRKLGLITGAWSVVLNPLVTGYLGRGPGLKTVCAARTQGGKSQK

The assay has as its target T1, GPR40 (Homo sapiens, UniProt O14842).
T1 construct: host or cells: HEK293 (ChemiBrite cell line)
Briefly: Promoter-luciferase assay to measure GPR40 activation (HEK293 cells stably transfected with GPR40 cDNA). In kind it is cell-based. Particulars: HEK293 cells stably transfected with GPR40, 5xSRE-luciferase; read-out: EC50 in Luciferase assay. The method, then: GPR40 activation was measured in HEK293 cells stably transfected with GPR40 cDNA (ChemiBrite cell lines from Millipore, US). These cells were transiently transfected with a pGL2 (Promega Inc.) plasmid having a 5×SRE sequence, cloned 5′ of a luciferase gene along with a β-galactosidase plasmid as normalizing control. Briefly, 35000 cells/well were seeded in a 96 well plates. After overnight incubation at 37° C., the cells were washed with PBS and transfected with the 5×-SRE-Luciferase plasmid and the β-galactosidase plasmid. 6 h post transfection, media was removed and replaced with fresh media with different concentration of drugs and incubated for 16 more hours. The cells were then lysed in 50 μL of Glo-Lysis buffer (Promega) for 30 min at room temperature. The cells were then centrifuged and lysates were collected. Luciferase activity was measured by adding 100 μL of luciferase substrate (Promega) in 20 μL of lysate and measuring the luminescence in luminometer. The […] activity was also measured by adding 20 μL of lysates with 20 μL of β-galactosidase buffer (Promega) and monitoring the absorbance at 415 nm. Luciferase values were divided by β-galactosidase values to normalize transfection efficiency (Table 2)
As to `CC#C[C@@H](CC(=O)O)c1ccc(OCc2cccc(CN3CCc4nc(Br)sc4C3)c2)cc1` [Compound 32, (S)-3-(4-((3-((2-Bromo-6,7-dihydrothiazolo[5,4-c]pyridin-5(4H)-yl)methyl)benzyl)oxy)phenyl)hex-4-ynoic acid], the EC50 (as a rule, the concentration giving half of the maximal effect) came to 4.8 nM.

In the case of `CC#C[C@@H](CC(=O)O)c1ccc(OCc2cccc(CN3CCc4oc(C5CC5)nc4C3)c2)cc1` [Compound 26, (S)-3-(4-((3-((2-Cyclopropyl-6,7-dihydrooxazolo[4,5-c]pyridin-5(4H)-yl)methyl)benzyl)oxy)phenyl)hex-4-ynoic acid], the EC50 stood at 4.1 nM.

For `CC#C[C@@H](CC(=O)O)c1ccc(OCc2cccc(CN3CCc4nc(N)sc4C3)c2)cc1` [Compound 38, (S)-3-(4-((3-((2-amino-6,7-dihydrothiazolo[5,4-c]pyridin-5(4H)-yl)methyl)benzyl)oxy)phenyl)hex-4-ynoic acid], the EC50 worked out at 17.8 nM.

`CC#C[C@@H](CC(=O)O)c1ccc(OCc2cccc(CN3CCc4ccccc43)c2)cc1` [Compound 24, (S)-3-(4-((3-(Indolin-1-ylmethyl)benzyl)oxy)phenyl)hex-4-ynoic acid]: the EC50 stood at 0.7 nM.

As for `CC#C[C@@H](CC(=O)O)c1ccc(OCc2cccc(CN3Cc4ccccc4C3)c2)cc1` [Compound 12, (S)-3-(4-((3-(isoindolin-2-ylmethyl)benzyl)oxy)phenyl)hex-4-ynoic acid trifluoroacetic acid], the EC50 is 5.6 nM.

In the case of `CC#C[C@@H](CC(=O)O)c1ccc(OCc2cccc(CN3CCc4sc([N+](=O)[O-])cc4C3)c2)cc1` [Compound 65, (S)-3-(4-((3-((2-Nitro-6,7-dihydrothieno[3,2-c]pyridin-5(4H)-yl)methyl)benzyl)oxy)phenyl)hex-4-ynoic acid], the EC50 came to 1.6 nM.

On to `CC#C[C@@H](CC(=O)O)c1ccc(OCc2cccc(CN3CCc4sc(C(=O)N(C)C)cc4C3)c2)cc1` [Compound 47, (S)-3-(4-((3-((2-(dimethylcarbamoyl)-6,7-dihydrothieno[3,2-c]pyridin-5(4H)-yl)methyl)benzyl)oxy)phenyl)hex-4-ynoic acid], for which the EC50 is 9 nM.

In the case of `CC#C[C@@H](CC(=O)O)c1ccc(OCc2cccc(CN3CCc4sc(C5CC5)cc4C3)c2)cc1` [Compound 69, (S)-3-(4-((3-((2-Cyclopropyl-6,7-dihydrothieno[3,2-c]pyridin-5(4H)-yl)methyl)benzyl)oxy)phenyl)hex-4-ynoic acid compound with 2,2,2-trifluoroacetic acid], the EC50 amounted to 0.8 nM.

Regarding `CC#C[C@@H](CC(=O)O)c1ccc(OCc2cccc(CN3CCCC3c3ccccc3)c2)cc1` (stereo partly drawn) [Compound 51, (3S)-3-(4-((3-((2-phenylpyrrolidin-1-yl)methyl)benzyl)oxy)phenyl)hex-4-ynoic acid], the EC50 was 3 nM.

On to `CC#C[C@@H](CC(=O)O)c1ccc(OCc2cccc(CN3CCc4ncncc4C3)c2)cc1` [Compound 21, (S)-3-(4-((3-((7,8-Dihydropyrido[4,3-d]pyrimidin-6(5H)-yl)methyl)benzyl)oxy)phenyl)hex-4-ynoic acid], for which the EC50 worked out at 2.8 nM.

Turning to `CC#C[C@@H](CC(=O)O)c1ccc(OCc2cccc(CN3CC4CC(C3)O4)c2)cc1` [Compound 23, (3S)-3-(4-((3-(6-Oxa-3-azabicyclo[3.1.1]heptan-3-ylmethyl)benzyl)oxy)phenyl)hex-4-ynoic acid], the EC50 came to 5.3 nM.

For `CC#C[C@@H](CC(=O)O)c1ccc(OCc2cccc(CN3CCCc4ccccc43)c2)cc1` [Compound 13, (S)-3-(4-((3-((3,4-dihydroquinolin-1(2H)-yl)methyl)benzyl)oxy)phenyl)hex-4-ynoic acid], the EC50 is 0.8 nM.

With `CC#C[C@@H](CC(=O)O)c1ccc(OCc2cccc(CN3CCc4sc(C(=O)O)cc4C3)c2)cc1` [Compound 35, (S)-5-(3-((4-(1-carboxypent-3-yn-2-yl)phenoxy)methyl)benzyl)-4,5,6,7-tetrahydrothieno[3,2-c]pyridine-2-carboxylic acid], the EC50 was 204 nM.
